Key:
[1] = system: isolated rings of thoracic aorta; experiment: Evaluation of release of NO: vasorelaxing activity on endothelium-denuded aortic rings contracted with KCl; set-up: species or system rat; key to NO release properties Emax (maximum vasorelaxing effect) / NO release properties pIC50 (vasorelaxing potency): S.E: Scarcely Effective: it is not possible to detect NO release comparable to the other compounds mentioned here; settings: for IC50 / Emax: Rattus norvegicus; for IC50 / NO release properties pIC50 (vasorelaxing potency): concentration reducing contractile tone induced by 20 mM KCl by half; for IC50: read-out: NO release properties pIC50 (vasorelaxing potency) (converted); for Emax / NO release properties Emax (maximum vasorelaxing effect): relative to contractile tone induced by 20 mM KCl, 1 nM-10 μM; for Emax: read-out: NO release properties Emax (maximum vasorelaxing effect)
Experimental: The activity of the compounds was evaluated on isolated rings of thoracic aorta of normotensive male Wistar rats (250-350 g). After light anaesthesia with ether, the rats were sacrificed by cervical dislocation and exsanguination. The aortas were immediately excised, extraneous tissues were removed and the endothelial layer was removed by gently rubbing the surface with a hypodermic needle. Rings of aorta with a width of 5 mm were suspended, with a preload of 2 g, in 20-ml organ baths, containing a solution of “Tyrode” (composition of the saline solution in mM: NaCl 136.8; KCl 2.95; CaCl2 1.80; MgSO4 1.05; NaH2PO4 0.41; NaHCO3 11.9; glucose 5.5), thermostatically controlled at 37° C. and kept in an atmosphere of O2 (95%) and CO2 (5%). […] were recorded by means of an isometric transducer (FTO3 Erba), connected to a microdynamometer (Buxco Electronics).
60 minutes after preparation, removal of the endothelium was confirmed by acetylcholine (ACH) (10 μM) treatment of the vascular rings pre-contracted with KCl (20 mM). Relaxation of less than 10% of the contraction induced by KCl was considered as representative of acceptable removal of the endothelial layer, whereas organs displaying relaxation ≧10% were discarded. 40 minutes after confirmation of complete removal of the endothelium, the aortas were contracted by treatment with a single dose of KCl (20 mM) and after the contraction reached a stable plateau, increasing cumulative concentrations (with progressive increments of 3 times) of the test compounds (1 nM-10 μM) were added. It was found from preliminary experiments that the contraction induced by KCl (20 mM) remained stable in a tonic state for at least 40 minutes. The same experiments were performed in the presence of a well-known inhibitor of guanylate cyclase: ODQ 1 μM, which was incubated in aorta preparations after confirmation of removal of the endothelium.
Analysis of the results. The vasorelaxing activity was evaluated as a percentage (%) relative to the contractile tone induced by 20 mM KCl. The pharmacodynamic efficacy parameter (Emax) corresponds to the maximum vasorelaxing effect induced by the molecule tested, expressed as percentage relative to the contractile tone induced by 20 mM KCl. When the limit concentration of 10 μM (the highest concentration administered) of the test compounds has not reached the maximum effect, the efficacy parameter (Emax) corresponds to the vasorelaxing effect induced by the limit concentration (expressed as percentage relative to the contractile tone induced by 20 mM KCl). The pharmacodynamic parameter of potency of the compounds was expressed as pIC50 calculated as the negative logarithm of the molar concentration of test compound that reduces the contractile tone induced by 20 mM KCl by half. […] The parameters of efficacy and potency were expressed as mean±standard error, for 5-10 experiments. The experimental data were analysed by the program GraphPad Prism 3.0.

[2] = target: COX-2 (Mus musculus (Mouse), UniProt Q05769); experiment: Evaluation of COX-2 activity: PGE2 production in LPS-stimulated J774 cells; assay type: cell-based, murine; settings: J774 cells stimulated 24 hours with LPS 10 μg/mL; PGE2 by radio-immunological assay; read-out: Cyclooxygenase inhibition COX-2 IC50
Sequence of COX-2 (Q05769 18-604): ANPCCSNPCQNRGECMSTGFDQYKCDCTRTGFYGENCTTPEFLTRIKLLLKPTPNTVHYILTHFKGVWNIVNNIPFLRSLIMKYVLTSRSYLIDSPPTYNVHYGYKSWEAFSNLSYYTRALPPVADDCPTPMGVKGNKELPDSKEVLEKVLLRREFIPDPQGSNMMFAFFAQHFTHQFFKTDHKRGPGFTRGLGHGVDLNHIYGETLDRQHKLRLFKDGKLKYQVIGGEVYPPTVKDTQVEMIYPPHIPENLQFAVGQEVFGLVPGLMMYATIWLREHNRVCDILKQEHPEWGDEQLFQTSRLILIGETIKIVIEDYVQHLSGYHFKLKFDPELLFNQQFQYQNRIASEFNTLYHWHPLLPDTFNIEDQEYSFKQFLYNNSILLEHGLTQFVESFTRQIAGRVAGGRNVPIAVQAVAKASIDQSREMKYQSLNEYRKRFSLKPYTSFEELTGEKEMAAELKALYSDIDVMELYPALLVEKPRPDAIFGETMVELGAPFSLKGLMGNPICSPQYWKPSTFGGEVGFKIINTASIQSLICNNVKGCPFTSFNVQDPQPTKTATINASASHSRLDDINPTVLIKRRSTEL
Experimental: The murine monocyte/macrophage cell line J774 is grown in Dulbecco's modified Eagle's medium (DMEM), enriched with glutamine (2 mM), HEPES (25 mM), penicillin (100 u/mL), streptomycin (100 μg/mL), 10% of fetal bovine serum (FBS) and 1.2% of sodium pyruvate. […] Just before the experiments, the culture medium is replaced with fresh medium without FBS to avoid interference during the radio-immunological phase and the cells are stimulated as described below.
The supernatants are collected for evaluating, by means of radio-immunological assays, the amount of PGE2 produced.
In each group of experiments, wells were used in triplicate for the different treatment conditions. […] The data were evaluated using the sigmoidal dose-response equation (variable slope) (GraphPad software). IC50 and the 95% precision intervals were calculated with the program GraphPad Instat (GraphPad software).

Compound | Emax [1] | IC50 [2] | also measured
Cc1c(CC(=O)OCCO[N+](=O)[O-])cc(-c2ccc(S(C)(=O)=O)cc2)n1-c1ccccc1 [Example 1, 2-(Nitrooxy)ethyl-2-[1-phenyl-2-methyl-5-(4-methylsulphonylphenyl)-1H-pyrrol-3-yl]acetate] | 66 ± 3% | 43 nM | IC50 [1]: 1410 nM
CSc1ccc(-n2c(-c3ccc(S(C)(=O)=O)cc3)cc(CC(=O)OCCCCO)c2C)cc1 [Example 14-II, 4-(Hydroxy)butyl-2-[1-(4-thiomethylphenyl)-2-methyl-5-(4-methylsulphonylphenyl)-1H-pyrrol-3-yl]acetate] | – | 55 nM | –
Cc1c(CC(=O)NCCO)cc(-c2ccc(S(C)(=O)=O)cc2)n1-c1cccc(F)c1 [Example 24-II, N-[(2-hydroxy)ethyl]-2-[1-(3-fluorophenyl)-2-methyl-5-(4-methylsulphonylphenyl)-1H-pyrrol-3-yl]acetamide] | – | 290 nM | –
Cc1c(CCOCCCO)cc(-c2ccc(S(C)(=O)=O)cc2)n1-c1cccc(F)c1 [Example 42-II, 3-[2-(1-(3-Fluorophenyl)-2-methyl-5-(4-methylsulphonylphenyl)-1H-pyrrol-3-yl)ethoxy]propanol] | – | 1500 nM | –
Cc1c(CC(=O)OCCCCO)cc(-c2ccc(S(C)(=O)=O)cc2)n1-c1cccc(F)c1 [Example 12-II, 4-(hydroxy)butyl-[1-(3-fluorophenyl)-2-methyl-5-(4-methylsulphonylphenyl)-1H-pyrrol-3-yl]-acetate] | – | 110 nM | –
CSc1ccc(-n2c(-c3ccc(S(C)(=O)=O)cc3)cc(CC(=O)OCCCO)c2C)cc1 [Example 10-II, 3-(Hydroxy)propyl-[1-(4-methylthiophenyl)-2-methyl-5-(4-methylsulphonylphenyl)-1H-pyrrol-3-yl]-acetate] | – | 260 nM | –
Cc1c(CCOCCCO[N+](=O)[O-])cc(-c2ccc(S(C)(=O)=O)cc2)n1-c1ccccc1 [Example 40, 3-[2-[2-(1-Phenyl-2-methyl-5-(4-methylsulphonylphenyl)-1H-pyrrol-3-yl)ethoxy]propyl Nitrate] | 48.2 ± 0.5% | 15 nM | –
Cc1c(CC(=O)NC(CO[N+](=O)[O-])C(=O)O)cc(-c2ccc(S(C)(=O)=O)cc2)n1-c1cccc(F)c1 (stereo in doubt) [Example 30, (S)-3-(Nitroxy)-2-[1-(3-fluorophenyl)-2-methyl-5-(4-methylsulphonylphenyl)-1H-pyrrol-3-yl]acetamido]propanoic Acid] | – | 140 nM | NO release properties pIC50 (vasorelaxing potency) [1]: S.E; NO release properties Emax (maximum vasorelaxing effect) [1]: S.E
Cc1c(CC(=O)OCC(CO[N+](=O)[O-])O[N+](=O)[O-])cc(-c2ccc(S(C)(=O)=O)cc2)n1-c1ccccc1 (racemic) [Example 15, (R,S)-2,3-bis(Nitrooxy)propyl-2-[1-phenyl-2-methyl-5-(4-methylsulphonylphenyl)-1H-pyrrol-3-yl]acetate] | 57 ± 6% | – | IC50 [1]: 1120 nM
COc1ccc(-n2c(-c3ccc(S(C)(=O)=O)cc3)cc(CC(=O)OCCCO)c2C)cc1 [Example 9-II, 3-Hydroxypropyl-[1-(4-methoxyphenyl)-2-methyl-5-(4-methylsulphonylphenyl)-1H-pyrrol-3-yl]-acetate] | – | 700 nM | –
Cc1c(CC(=O)OCCCO)cc(-c2ccc(S(C)(=O)=O)cc2)n1-c1cccc(F)c1 [Example 8-II, 3-Hydroxypropyl-[1-(3-fluorophenyl)-2-methyl-5-(4-methylsulphonylphenyl)-1H-pyrrol-3-yl]-acetate] | – | 23 nM | –
CSc1ccc(-n2c(-c3ccc(S(C)(=O)=O)cc3)cc(CC(=O)OCCCO[N+](=O)[O-])c2C)cc1 [Example 10, 3-(Nitroxy)propyl-[1-(4-methylthiophenyl)-2-methyl-5-(4-methylsulphonylphenyl)-1H-pyrrol-3-yl]-acetate] | 41 ± 8% | 27 nM | –
Cc1c(CC(=O)NC(CCO[N+](=O)[O-])C(=O)O)cc(-c2ccc(S(C)(=O)=O)cc2)n1-c1cccc(F)c1 (racemic) [Example 33, (R,S)-4-(Nitroxy)-2-[[1-(3-fluorophenyl)-2-methyl-5-(4-methylsulphonylphenyl)-1H-pyrrol-3-yl]acetamido]butanoic Acid] | 23 ± 2% | – | –
CSc1ccc(-n2c(-c3ccc(S(C)(=O)=O)cc3)cc(CC(=O)OCCO[N+](=O)[O-])c2C)cc1 [Example 5, 2-(Nitroxy)ethyl-[1-(4-methylthiophenyl)-2-methyl-5-(4-methylsulphonylphenyl)-1H-pyrrol-3-yl]-acetate] | 64.9 ± 1.4% | – | IC50 [1]: 457 nM
CSc1ccc(-n2c(-c3ccc(S(C)(=O)=O)cc3)cc(CC(=O)OCCO)c2C)cc1 [Example 5-II, 2-Hydroxyethyl-[1-(4-methylthiophenyl)-2-methyl-5-(4-methylsulphonylphenyl)-1H-pyrrol-3-yl]-acetate] | – | 85 nM | –
Cc1c(CCOCCO[N+](=O)[O-])cc(-c2ccc(S(C)(=O)=O)cc2)n1-c1ccccc1 [Example 36, 2-[2-[1-Phenyl-2-methyl-5-(4-methylsulphonylphenyl)-1H-pyrrol-3-yl]ethoxy]ethyl Nitrate] | 65% | 17 nM | IC50 [1]: 6030 nM
Cc1c(CC(=O)OCCO)cc(-c2ccc(S(C)(=O)=O)cc2)n1-c1ccccc1 [Example 1-II] | – | 27 nM | –
CSc1ccc(-n2c(-c3ccc(S(C)(=O)=O)cc3)cc(CC(=O)OCCCCO[N+](=O)[O-])c2C)cc1 [Example 14, 4-(Nitrooxy)butyl-2-[1-(4-thiomethylphenyl)-2-methyl-5-(4-methylsulphonylphenyl)-1H-pyrrol-3-yl]acetate] | 55 ± 15% | 220 nM | vasorelaxing effect in the presence of ODQ ([1]; ODQ 1 μM, guanylate cyclase inhibitor): not fully antagonized by ODQ; IC50 [1]: 5010 nM
Cc1c(CC(=O)NC(CCO)C(=O)O)cc(-c2ccc(S(C)(=O)=O)cc2)n1-c1ccc(F)cc1 (racemic) [Example 32-II, (R,S)-4-(Hydroxy)-2-[[1-(4-fluorophenyl)-2-methyl-5-(4-methylsulphonylphenyl)-1H-pyrrol-3-yl]acetamido]butanoic Acid] | – | 86 nM | –
Cc1c(CC(=O)NC(CO[N+](=O)[O-])C(=O)O)cc(-c2ccc(S(C)(=O)=O)cc2)n1-c1ccc(F)cc1 (stereo in doubt) [Example 29, (S)-3-(Nitroxy)-2-[[1-(4-fluorophenyl)-2-methyl-5-(4-methylsulphonylphenyl)-1H-pyrrol-3-yl]acetamido]propanoic Acid] | – | 310 nM | NO release properties pIC50 (vasorelaxing potency) [1]: S.E; NO release properties Emax (maximum vasorelaxing effect) [1]: S.E
Cc1c(CC(=O)NC(CO)C(=O)O)cc(-c2ccc(S(C)(=O)=O)cc2)n1-c1ccc(F)cc1 (stereo in doubt) [Example 29-II, (S)-3-(Hydroxy)-2-[[1-(4-fluorophenyl)-2-methyl-5-(4-methylsulphonylphenyl)-1H-pyrrol-3-yl]acetamido]propanoic Acid] | – | 160 nM | –
Cc1c(CC(=O)NC(CO)C(=O)O)cc(-c2ccc(S(C)(=O)=O)cc2)n1-c1cccc(F)c1 (stereo in doubt) [Example 30-II, (S)-3-(Hydroxy)-2-[1-(3-fluorophenyl)-2-methyl-5-(4-methylsulphonylphenyl)-1H-pyrrol-3-yl]acetamido]propanoic Acid] | – | 57 nM | –

Source: patent publication US9162979B2, “1,5-Diary1-2-alkylpyrrole-3-substituted nitro esters, selective COX-2 inhibitors and nitric oxide donors” (ROTTAPHARM BIOTECH S.R.L., priority 2010, dated 2015)
